The text below walks through data of publication PMC11418123, “Structure of a truncated human GlcNAc-1-phosphotransferase variant reveals the basis for its hyperactivity” (The Journal of Biological Chemistry, 2024).

For orientation: Km means the concentration of substrate that gives half-maximal velocity. What is called stoichiometry N is the number of molecules, sites or subunits per partner or assembly. One may read the kcat as the number of substrate molecules converted per active site and unit of time at saturation.

One data set has as its target T1, Dm PTase (Drosophila melanogaster, UniProt A1Z7S7).
T1 construct: gene Gnptab; soluble, without N- and C-terminal TM domains and cytosolic tails; melittin signal, N-HA, C-HPC4; secreted from T. ni cells; single chain; H375 and F378 correspond to human H956 and H959
T1 sequence (A1Z7S7 47-630 limits assumed): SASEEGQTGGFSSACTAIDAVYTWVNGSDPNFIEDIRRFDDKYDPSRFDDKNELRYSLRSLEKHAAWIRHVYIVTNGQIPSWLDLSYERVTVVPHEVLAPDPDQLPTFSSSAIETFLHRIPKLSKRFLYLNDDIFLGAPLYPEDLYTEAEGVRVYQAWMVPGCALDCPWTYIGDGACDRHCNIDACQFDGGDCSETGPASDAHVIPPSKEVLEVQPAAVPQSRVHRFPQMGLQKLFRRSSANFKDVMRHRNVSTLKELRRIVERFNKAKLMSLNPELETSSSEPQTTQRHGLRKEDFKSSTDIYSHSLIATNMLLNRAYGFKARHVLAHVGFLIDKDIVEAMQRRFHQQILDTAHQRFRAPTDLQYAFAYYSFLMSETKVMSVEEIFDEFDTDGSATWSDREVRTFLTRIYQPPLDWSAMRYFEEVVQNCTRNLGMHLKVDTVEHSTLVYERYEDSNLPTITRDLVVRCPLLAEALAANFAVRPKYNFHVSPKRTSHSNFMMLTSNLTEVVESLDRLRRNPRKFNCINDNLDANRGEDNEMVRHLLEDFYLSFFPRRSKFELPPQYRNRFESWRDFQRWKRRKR
Kind of data set: PTase activity assay, UDP-[3H]GlcNAc. The settings on record: donor, labelled compound; acceptor 100 mM α-MM. In kind it is biochemical.

The target in data set [1] is T2, hPTase-αβ (soluble full-length human GlcNAc-1-phosphotransferase) (Homo sapiens, UniProt Q3T906).
T2 construct: gene GNPTAB; soluble secreted form of the alpha/beta precursor, cut by site-1 protease at K928/D929; no gamma subunit; dimer
T2 sequence (Q3T906 44-928 limits assumed): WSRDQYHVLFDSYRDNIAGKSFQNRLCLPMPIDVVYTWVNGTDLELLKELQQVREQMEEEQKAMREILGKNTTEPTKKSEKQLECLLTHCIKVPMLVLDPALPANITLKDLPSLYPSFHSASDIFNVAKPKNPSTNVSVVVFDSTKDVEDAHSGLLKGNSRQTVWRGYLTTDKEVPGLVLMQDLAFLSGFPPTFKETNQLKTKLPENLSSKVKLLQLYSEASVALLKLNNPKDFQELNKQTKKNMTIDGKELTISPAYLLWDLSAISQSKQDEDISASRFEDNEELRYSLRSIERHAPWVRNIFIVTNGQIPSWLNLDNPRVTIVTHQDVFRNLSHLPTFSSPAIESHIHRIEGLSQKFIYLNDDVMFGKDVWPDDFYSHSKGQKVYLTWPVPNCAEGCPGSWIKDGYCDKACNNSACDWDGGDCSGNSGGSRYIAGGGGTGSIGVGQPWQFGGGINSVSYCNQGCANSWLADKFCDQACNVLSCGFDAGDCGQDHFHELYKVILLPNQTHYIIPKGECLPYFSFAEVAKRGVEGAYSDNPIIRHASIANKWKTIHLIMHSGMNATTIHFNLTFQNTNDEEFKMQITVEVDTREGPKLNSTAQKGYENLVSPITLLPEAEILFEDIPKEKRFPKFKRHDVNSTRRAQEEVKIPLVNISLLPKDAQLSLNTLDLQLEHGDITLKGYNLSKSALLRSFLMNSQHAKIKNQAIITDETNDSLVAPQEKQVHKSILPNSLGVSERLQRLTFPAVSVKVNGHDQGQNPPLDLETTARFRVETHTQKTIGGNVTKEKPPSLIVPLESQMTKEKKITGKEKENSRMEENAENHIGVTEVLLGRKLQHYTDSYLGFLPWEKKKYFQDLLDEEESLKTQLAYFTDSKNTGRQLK
T2 sequence (Q3T906 929-1214 limits assumed): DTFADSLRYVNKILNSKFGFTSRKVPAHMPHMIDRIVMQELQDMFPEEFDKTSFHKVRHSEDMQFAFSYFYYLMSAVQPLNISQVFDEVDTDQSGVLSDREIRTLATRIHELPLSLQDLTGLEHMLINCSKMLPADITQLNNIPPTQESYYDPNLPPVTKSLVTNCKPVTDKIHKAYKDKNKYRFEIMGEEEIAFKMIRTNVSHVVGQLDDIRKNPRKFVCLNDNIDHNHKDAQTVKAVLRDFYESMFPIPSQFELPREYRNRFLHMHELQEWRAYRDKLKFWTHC
Nature of the data set: cryo-EM structure, […] Å. In kind it is binding. The settings on record: 10 mM UDP-GlcNAc, 10 mM MnCl2, 6 h at 4 °C; donor site in the catalytic pocket with two Mn2+.

Data set [2] concerns the target T3, S1S3 (Homo sapiens, UniProt Q3T906).
T3 construct: gene GNPTAB; soluble truncation, no TM domains; S1 (233 aa) replaced by 29-aa Dictyostelium discoideum PTase linker; Notch1 to S1P site deleted, GGSGG linker; melittin signal, N-HA, C-HPC4; secreted from T. ni cells; single chain, dimer
Nature of the data set: UDP-[3H]GlcNAc radiolabel transfer assay, QAE-Sephadex. The settings on record: saturating UDP-[3H]GlcNAc; Mn2+ and Mg2+, pH 7.4, 37 °C (general assay); mean of two assays. In kind it is biochemical.

Data set [3] has as its target T4, S1S3 (Homo sapiens, UniProt Q3T906, H959F).
T4 construct: gene GNPTAB; soluble truncation, no TM domains; S1 (233 aa) replaced by 29-aa Dictyostelium discoideum PTase linker; Notch1 to S1P site deleted, GGSGG linker; melittin signal, N-HA, C-HPC4; secreted from T. ni cells; single chain, dimer
Kind of data set: PTase activity assay, UDP-[3H]GlcNAc. In kind it is biochemical. The settings on record: H279 = H959 of full-length hPTase.

For data set [4], the target named is soluble S1S3, truncated hyperactive variant of human GlcNAc-1-phosphotransferase (PTase) αβ lacking both transmembrane domains and cytosolic tails (human | Dictyostelium discoideum). Kind of data set: cryo-EM structure; single-particle cryo-EM of purified soluble S1S3 at 0.8 mg/ml; 3.4 Å.
Substrate in data set [5]: CO[C@H]1O[C@H](CO)[C@@H](O)[C@H](O)[C@@H]1O
Nature of the data set: UDP-[3H]GlcNAc radiolabel transfer assay, QAE-Sephadex. The conditions noted are these: saturating UDP-[3H]GlcNAc, Mn2+ and Mg2+, pH 7.4, 37 °C (general assay), mean of two assays. In kind it is biochemical, Homo sapiens.

T4 sequence (Q3T906 929-1214 H959F limits assumed, one chain of several): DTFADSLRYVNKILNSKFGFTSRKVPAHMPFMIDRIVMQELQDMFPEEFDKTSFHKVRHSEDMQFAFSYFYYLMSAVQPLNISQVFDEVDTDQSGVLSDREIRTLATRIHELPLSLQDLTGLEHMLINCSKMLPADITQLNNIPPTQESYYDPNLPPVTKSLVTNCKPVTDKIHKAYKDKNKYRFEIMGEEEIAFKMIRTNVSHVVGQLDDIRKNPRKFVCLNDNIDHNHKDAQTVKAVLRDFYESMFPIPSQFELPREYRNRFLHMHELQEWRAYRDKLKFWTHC

For `CC(=O)N[C@H]1[C@@H](OP(=O)(O)OP(=O)(O)OC[C@H]2O[C@@H](n3ccc(=O)[nH]c3=O)[C@H](O)[C@@H]2O)O[C@H](CO)[C@@H](O)[C@@H]1O` [UDP-GlcNAc], on Dm PTase, the “PTase activity assay, UDP-[3H]GlcNAc” value is given as “Dm PTase is capable of using UDP-GlcNAc as a nucleotide sugar donor”. In addition, the “cryo-EM structure, 2.9 Å” value in data set [1] is listed as “we resolved the cryo-EM structure of hPTase in the presence of the nucleotide donor sugar”.
For `OC[C@H]1O[C@H](O[C@@H]2C(O)O[C@H](CO)[C@@H](O)[C@@H]2O)[C@@H](O)[C@@H](O)[C@@H]1O` (stereo partly drawn) [mannobiose, 2-α-mannobiose], the Km on S1S3 [2] was 53.6 mM.
With `CO[C@H]1O[C@H](CO)[C@@H](O)[C@H](O)[C@@H]1O` [α-MM, methyl α-D-mannopyranoside], the “PTase activity assay, UDP-[3H]GlcNAc” value on S1S3 [3] (100 mM α-MM) is listed as “The His-279-Phe mutation caused a significant decrease in activity toward the three acceptors”.
As for `CC(=O)N[C@H]1[C@H](O[C@H]2[C@H](O)[C@@H](NC(C)=O)C(O)O[C@@H]2CO)O[C@H](CO)[C@@H](O[C@@H]2O[C@H](CO[C@H]3O[C@H](CO[C@H]4O[C@H](CO)[C@@H](O)[C@H](O)[C@@H]4O[C@H]4O[C@H](CO)[C@@H](O)[C@H](O)[C@@H]4O)[C@@H](O)[C@H](O[C@H]4O[C@H](CO)[C@@H](O)[C@H](O)[C@@H]4O[C@H]4O[C@H](CO)[C@@H](O)[C@H](O)[C@@H]4O)[C@@H]3O)[C@@H](O)[C@H](O[C@H]3O[C@H](CO)[C@@H](O)[C@H](O)[C@@H]3O[C@H]3O[C@H](CO)[C@@H](O)[C@H](O)[C@@H]3O[C@H]3O[C@H](CO)[C@@H](O)[C@H](O)[C@@H]3O)[C@@H]2O)[C@@H]1O` (some centres unmarked) [Man-9, Man9GlcNAc2], the “PTase activity assay, UDP-[3H]GlcNAc” value at S1S3 [3] (0.34 mM Man-9) is reported as “The His-279-Phe mutation caused a significant decrease in activity toward the three acceptors”.
“soluble S1S3, truncated hyperactive variant of human GlcNAc-1-phosphotransferase (PTase) αβ lacking both transmembrane domains and cytosolic tails (enzyme)” showed a stoichiometry N in data set [4] of 2.

B1: hPTase-αβ (soluble full-length human GlcNAc-1-phosphotransferase) (Homo sapiens) (protein)
chain 1: WSRDQYHVLFDSYRDNIAGKSFQNRLCLPMPIDVVYTWVNGTDLELLKELQQVREQMEEEQKAMREILGKNTTEPTKKSEKQLECLLTHCIKVPMLVLDPALPANITLKDLPSLYPSFHSASDIFNVAKPKNPSTNVSVVVFDSTKDVEDAHSGLLKGNSRQTVWRGYLTTDKEVPGLVLMQDLAFLSGFPPTFKETNQLKTKLPENLSSKVKLLQLYSEASVALLKLNNPKDFQELNKQTKKNMTIDGKELTISPAYLLWDLSAISQSKQDEDISASRFEDNEELRYSLRSIERHAPWVRNIFIVTNGQIPSWLNLDNPRVTIVTHQDVFRNLSHLPTFSSPAIESHIHRIEGLSQKFIYLNDDVMFGKDVWPDDFYSHSKGQKVYLTWPVPNCAEGCPGSWIKDGYCDKACNNSACDWDGGDCSGNSGGSRYIAGGGGTGSIGVGQPWQFGGGINSVSYCNQGCANSWLADKFCDQACNVLSCGFDAGDCGQDHFHELYKVILLPNQTHYIIPKGECLPYFSFAEVAKRGVEGAYSDNPIIRHASIANKWKTIHLIMHSGMNATTIHFNLTFQNTNDEEFKMQITVEVDTREGPKLNSTAQKGYENLVSPITLLPEAEILFEDIPKEKRFPKFKRHDVNSTRRAQEEVKIPLVNISLLPKDAQLSLNTLDLQLEHGDITLKGYNLSKSALLRSFLMNSQHAKIKNQAIITDETNDSLVAPQEKQVHKSILPNSLGVSERLQRLTFPAVSVKVNGHDQGQNPPLDLETTARFRVETHTQKTIGGNVTKEKPPSLIVPLESQMTKEKKITGKEKENSRMEENAENHIGVTEVLLGRKLQHYTDSYLGFLPWEKKKYFQDLLDEEESLKTQLAYFTDSKNTGRQLK
chain 2: DTFADSLRYVNKILNSKFGFTSRKVPAHMPHMIDRIVMQELQDMFPEEFDKTSFHKVRHSEDMQFAFSYFYYLMSAVQPLNISQVFDEVDTDQSGVLSDREIRTLATRIHELPLSLQDLTGLEHMLINCSKMLPADITQLNNIPPTQESYYDPNLPPVTKSLVTNCKPVTDKIHKAYKDKNKYRFEIMGEEEIAFKMIRTNVSHVVGQLDDIRKNPRKFVCLNDNIDHNHKDAQTVKAVLRDFYESMFPIPSQFELPREYRNRFLHMHELQEWRAYRDKLKFWTHC
notes: soluble secreted form of the alpha/beta precursor, cut by site-1 protease at K928/D929; no gamma subunit; dimer
Regarding B1, in data set [5], the Michaelis constant (Km) is 57,100 μM and the kcat came out at 0.153 s⁻¹.
